Test system: T1, rHrGSTm1
T1 construct: gene HrGSTm1; full-length CDS (672-bp ORF); 223 aa in abstract, 233; recombinant 44 kDa, no tag removal described
Assay: GSH conjugation, absorbance at […] nm, Michaelis-Menten fit
Assay type: biochemical, Hyalomma rufipes
Conditions: 5 mM GSH; CDNB varied 0.125-2 mM (printed unit μM lies far below this range, possibly meant mM); abstract calls glutathione the substrate

## O=[N+]([O-])c1ccc(Cl)c([N+](=O)[O-])c1 [CDNB, 1-Chlom-2,4-Dinitrobenzene]
  Km: 2.21 ± 0.76 µM

From PMC10759735, “The diverse functions of Mu-class Glutathione S-transferase HrGSTm1 during the development of Hyalomma rufipes with a focus on the detoxification metabolism of cyhalothrin” (Parasites & Vectors, 2024)
